These are literature values, as cited in patent publication US10869938B2, “Magnetic resonance imaging” (1C TARGETS AS, priority 2007, dated 2020).

SMILES strings stand for the structures. Where two headings read alike, the source gives them in different places.

The subject of this series is healthy myocardial cells. Particulars: healthy individuals.

Take `Cc1ncc(COP(=O)(O)O)c(CN(CCN(CC(=O)[O-])Cc2c(COP(=O)(O)O)cnc(C)c2O)CC(=O)[O-])c1O.[Mn+2]` [MnDPDP, manganese (II) chelate of N,N′-bis-(pyridoxal-5-phosphate)-ethylenediamine-N,N′-diacetic acid]: the “manganese tissue concentration versus time curve” value (5 minute infusion) is “biphasic curve” and the “manganese tissue concentration versus time curve” value (30 minute infusion) is on record as “increased steadily”.
